pIC50: −log10 of the molar value.
Target: HIV integrase (Human immunodeficiency virus type 1 group M subtype B, UniProt P04585)
Test: HIV integrase inhibitory activity assay (strand transfer, immunoplate, OD405)
Assay type: biochemical
Details: HIV integrase inhibition rate, absorbance OD405 nm
Procedure: The HIV integrase inhibitory activity was investigated based on the following assay method.
(1) Preparation of DNA Solution
By the same method as that described in Experimental Example 1 of WO 2004/024693, a substrate DNA solution (2 μmol/μl) and a target DNA solution (5 μmol/μl) were prepared. […] Each sequence of a substrate DNA and a target DNA is as described in the same Experimental Example.
(2) Measurement of Inhibition Rate (IC50 Value)
Streptavidin (manufactured by Vector Laboratories) was dissolved in a 0.1 M carbonate buffer solution (composition: 90 mM Na2CO3, 10 mM NaHCO3) to a concentration of 40 μg/ml. Each 50 μl of this solution was added to a well of an immunoplate (manufactured by NUNC), and this is allowed to stand at 4° C. overnight to adsorb. Then, each well was washed with a phosphate buffer (composition: 13.7 mM NaCl, 0.27 mM KCl, 0.43 mM Na2HPO4, 0.14 mM KH2PO4) two times, and 300 μl of a phosphate buffer containing 1% skim milk was added to block it for 30 minutes. Further, each well was washed with a phosphate buffer two times, […] of a substrate DNA solution (2 μmol/μl) was added to adsorb at room temperature for 30 minutes while shaking, and this was washed with a phosphate buffer two times and, then, distilled water once.
Then, to each well prepared as described above were added 12 μl of a buffer (composition: 150 mM MOPS (pH7.2), 75 mM MnCl2, 50 mM 2-mercaptoethanol, 25% glycerol, 500 μg/ml bovine serum albumin-fraction V), and 51 μl of a reaction solution prepared from […] of distilled water. Then, 9 μl of an integrase solution (30 μmol) was added, and the mixture was mixed well. To a well as a negative control (NC) was added 9 μl of a diluting solution (composition: 20 mM MOPS (pH7.2), 400 mM potassium glutamete, 1 mM EDTA, 0.1% NP-40, 20% glycerol, 1 mM DTT, 4 M urea), and this was mixed well using a plate mixer.
After the plate was incubated at 30° C. for 60 minutes, the reaction solution was discarded, followed by washing with 250 μl of a washing buffer (composition: 150 mM MOPS (pH7.2), 50 mM 2-mercaptoethanol, 25% glycerol, 500 μg/ml bovine serum albumin-fraction V) three times.
Then, to each well were added 12 μl of a buffer (composition: 150 mM MOPS (pH7.2), 75 mM MgCl2, 50 mM 2-mercaptoethanol, 25% glycerol, 500 μg/ml bovine serum albumin-fraction V), and 53 μl of a reaction solution prepared from 41 μl of distilled water. Further, 6 μl of a solution of a test compound in DMSO was added to each well, and 6 μl of DMSO was added to a well as a positive control (PC), followed by mixing well using a plate mixer. […]
C abs.; absorbance of well of compound
NC abs.: absorbance of NC
PC abs.: absorbance of PC

SMILES	pIC50
CN1CN(C[C@@H]2CCCO2)C(=O)c2c(O)c(=O)c(C(=O)NCc3ccc(F)cc3F)cn21 [Example N-15, 5-Hydroxy-1-methyl-4,6-dioxo-3-[(S)-1-(tetrahydro-furan-2-yl)methyl]-2,3,4,6-tetrahydro-1H-pyrid[2,1-f][1,2,4]triazine-7-carboxylic acid 2,4-difluoro-benzylamide]	8.48
CN1CN(C[C@H]2CCCO2)C(=O)c2c(O)c(=O)c(C(=O)NCc3ccc(F)cc3F)cn21 [Example N-16, 5-Hydroxy-1-methyl-4,6-dioxo-3-[(R)-1-(tetrahydro-furan-2-yl)methyl]-2,3,4,6-tetrahydro-1H-pyrid[2,1-f][1,2,4]triazine-7-carboxylic acid 2,4-difluoro-benzylamide]	8.59
O=C(NCc1ccc(F)cc1F)c1cn2c(c(O)c1=O)C(=O)N(C[C@@H]1CCCO1)CN2 [Example O-06, 5-Hydroxy-4,6-dioxo-3-[(S)-1-(tetrahydro-furan-2-yl)methyl]-2,3,4,6-tetrahydro-1H-pyrid[2,1-f][1,2,4]triazine-7-carboxylic acid 2,4-difluoro-benzylamide]	8.42
O=C(NCc1ccc(F)cc1F)c1cn2c(c(O)c1=O)C(=O)N(CCN1CCOCC1)CN2 [Example O-07, 5-Hydroxy-3-(2-morpholin-4-yl-ethyl)-4,6-dioxo-2,3,4,6-tetrahydro-1H-pyrid[2,1-f][1,2,4]triazine-7-carboxylic acid 2,4-difluoro-benzylamide]	8.32
